Where two headings read alike, the source gives them in different places.
Tests used:
[1] = tested on: adhesion of U937 cells to human umbilical vein endothelial cells (HUVEC); assay: Cell adhesion inhibitory effect: adhesion of U937 cells to IL-1β- or TNFα-stimulated HUVEC; assay type: cell-based; conditions: 0.75 h, 45 minutes adhesion at room temperature
Description: The test was performed with reference to a method described by Ross et al (J. Biol. Chem., 267, 8537-8543 (1992)). Briefly, endothelial cells derived from the human umbilical code vein (HUVEC) were cultured in a 48-well plate until they became confluent. Subsequently, IL-1β or TNFα was added. Five hours after the addition, U937 cells which are derived from human monocytes/histiocytes and FITC-labeled with PKH2 (Dainippon Seiyaku) were added to each well in an amount of 3×10^5 cells per well. After being allowed to stand for 45 minutes at room temperature, U937 cells which had not been adhered to were washed off, and the remaining cells were lysed using 1% Triton X-100. Fluorescent intensity was measured (Exi. 494 nm, Emi. 504 nm). The HUVEC cells were cultured in EGM-UV (Kurabo Industries Ltd.), and U937 cells were cultured in RPMI1640 plus 10% FCS. Each test drug (compound) was added to HUVEC simultaneously with the addition of IL-1β or TNFα, or to U937 cells 24 hours before the cell adhesion test, to thereby study the effect of the compound. The inhibitory activity was determined by the following equation: […]
(the number of drug-free U937 cells adhered to drug-free endothelial cells that have been stimulated with IL-1β or TNFα)--(the number of drug-free U937 cells adhered to drug-free endothelial cells that have not been stimulated with IL-1β or TNFα)=100%

[2] = tested on: mouse type II collagen arthritis; assay: Action on mouse type II collagen arthritis; assay type: in vivo, mouse (DBA/1 male); conditions: 30 mg/kg intraperitoneally once daily, 10 times
Description: The test was performed in accordance with a method described by Ranges et al. (J. Exp. Med., 162, 1105-1110 (1985)). To each of DBA/1 male mice (6-7 weeks old), 100 μg of type II collagen from bovine suspended in Freund's complete adjuvant was subcutaneously injected at the root of its tail. Twenty one days later, the mice was given a booster injection in a similar manner. The drug was intraperitoneally administered to each mouse once every day starting from 2 days prior to the booster injection until 7 days after the booster injection (a total of 10 times). The severity of arthritis was evaluated by measuring the thickness of the front foot pads. In addition, antibody titers (IgG+IgM) against type II collagen in serum were determined by ELISA.

[3] = tested on: infiltration of trachea by eosinocytes; assay: Inhibition of eosinocyte infiltration in a guinea pig asthma model; assay type: in vivo, guinea pig (Hartley male); conditions: 6 successive days plus 2 hours after challenge, 24 h after, control 204.5 ± 15.3, blank 67.7 ± 7.2
Description: In accordance with a method described by Terashi (Allergy, 37, 980-991 (1988)), groups of Hartley male guinea pigs, each group consisting of 4-7 animals (body weight: about 300 g), were exposed to chicken egg albumin (10 mg/ml) by way of inhalation using a ultrasonic nebulizer for 10 minutes a day for successive 9 days, to thereby create a sensitized state of the animals. From the following day, test compound 2 was intraperitoneally administered to each animal for successive 6 days (10 or 30 mg/kg). On day 7, metopyrone (10 mg/kg) and chlorphenylamine (10 mg/kg) were intraperitoneally administered to each animal. Thirty minutes later, each animal was exposed to chicken egg albumin (10 mg/ml) for 10 minutes by way of inhalation. In addition, 2 hours thereafter, test compound 2 was intraperitoneally administered to each animal. Twenty-four hours later, each animal was exsanguinated to death, and its trachea was removed. The trachea was fixed with formalin and embedded in paraffin, so as to prepare thin slice samples. The samples were subjected to luna staining, and eosinocytes that infiltrated were counted.

[4] = tested on: leukocyte infiltration in rat carrageenin pleurisy; assay: Leukocyte infiltration inhibitory action in rat carrageenin pleurisy; assay type: in vivo; conditions: 2 successive days, 16 h after carrageenin; for Count of infiltrated cells: control 2.37 ± 0.06; for Pleural fluid volume: control 3.3 ± 0.3
Description: In accordance with a method described by Kikuchi et al. (Japan J. Pharmacol., 39, 467-473 (1985)), action of the compound on leukocyte infiltration in rat carrageenin pleurisy was investigated. Groups of SD male […], each group consisting of 6 animals (7 weeks old), were provided for the test. Test compound 2 was intraperitoneally administered to each animal for successive 2 days (10 or 30 mg/kg). Two hours after the final administration, a 2% (w/v) carrageenin solution (0.1 ml) was intrathoracically administered. Sixteen hours later, each animal was exsanguinated to death, and pleural fluid was collected. The volume of the collected pleural fluid was measured, and cells that infiltrated and present in the pleural fluid were counted.

[5] = tested on: lymphocyte infiltration (CD3 positive cells) in mouse contact dermatitis; assay: Lymphocyte infiltration inhibitory action in mouse contact dermatitis; assay type: in vivo, mouse (ddy male); conditions: 6 successive days before induction, 24 h after picryl chloride; for Ear weight (difference in weight of both ears): control 4.9 ± 0.7; for Count of CD3 positive cells: control 10.8 ± 1.3
Description: In accordance with a method described by Asherson et al. (Immunology, 15, 405-416 (1968)), action of the compound on lymphocyte infiltration in mouse contact dermatitis was investigated. Groups of ddy male mice that had been sensitized with picryl chloride, each group consisting of 10 animals (body weight: 28-32 g), were provided for the test. Test compound 2 was intraperitoneally administered to each animal for successive 6 days before induction took place (1 or 10 mg/kg). A 1% solution of picryl chloride-olive oil (0.02 ml) was applied to an ear of each animal. Twenty-four hours later, both ears were punched (7 mm.phi.), to thereby compute the difference in weight. The ears were then embedded in paraffin, frozen, and cut in a vertical direction with respect to the ear face to prepare thin slices each having a thickness of 4 μm. CD3 positive cells were immunostained and counted.

[6] = IL-1β-stimulated HUVEC, read-out: Cell Adhesion (IC50), IL-1β Stimulation
[7] = TNFα-stimulated HUVEC, read-out: Cell Adhesion (IC50), TNFα Stimulation
[8] = 10 mg/kg intraperitoneally, p <0.05
[9] = 30 mg/kg intraperitoneally, p <0.01

COc1ccc(/C=C/CCCN2CCN(CCC/C=C/c3ccc(OC)cc3)CC2)cc1 [compound 4]
IC50 [1, 6]: 11.1 µM | IC50 [1, 7]: 9.4 µM

COc1cc(/C=C/CCCN2CCCN(CCC/C=C/c3cc(OC)c(OC)c(OC)c3)CC2)cc(OC)c1OC [Test Compound 2, N,N'-bis-((E)-5-(3,4,5-trimethoxyphenyl)-4-pentenyl)homopiperazine.2HCl]
Thickness of front foot pad, after 30 days ([2]; after 30 days, control 421.3 ± 13.1, blank 361.0 ± 4.2, p <0.05): 384.8 ± 6.9 × 10^-2 mm | Antibody titer against collagen (IgG + IgM), after 33 days ([2]; serum, ELISA, after 33 days, control 1.00 ± 0.13, blank 0 ± 0.00, p <0.01): 0.43 ± 0.10 percentage with respect to the | Infiltration of trachea by eosinocytes [3, 8]: 171.0 ± 6.5 cells/mm | Infiltration of trachea by eosinocytes [3, 9]: 122.2 ± 7.0 cells/mm | Count of infiltrated cells ([4]; 10 mg/kg intraperitoneally): 1.97 ± 0.05 × 10^8 | Pleural fluid volume ([4]; 10 mg/kg intraperitoneally): 2.5 ± 0.3 mL | Count of infiltrated cells [4, 9]: 1.68 ± 0.22 × 10^8 | Pleural fluid volume ([4]; 30 mg/kg intraperitoneally, p <0.05): 2.5 ± 0.3 mL | Ear weight (difference in weight of both ears) ([5]; 1 mg/kg intraperitoneally): 4.5 ± 0.8 mg/7 mm.phi. | Count of CD3 positive cells ([5]; 1 mg/kg intraperitoneally, p <0.05): 7.8 ± 0.4 cells/mm | Ear weight (difference in weight of both ears) [5, 8]: 2.9 ± 0.6 mg/7 mm.phi. | Count of CD3 positive cells ([5]; 10 mg/kg intraperitoneally, p <0.01): 4.2 ± 0.7 cells/mm

COc1ccccc1/C=C/CN1CCN(C/C=C/c2ccccc2OC)CC1 [compound 3]
IC50 [1, 6]: 3.4 µM | IC50 [1, 7]: 12.9 µM

COc1cc(/C=C\CCCN2CCCN(CCC/C=C\c3cc(OC)c(OC)c(OC)c3)CC2)cc(OC)c1OC [compound 1]
IC50 [1, 6]: 9.7 µM | IC50 [1, 7]: 8 µM

COc1cc(/C=C/CCCN2CCCN(CCC/C=C/c3cc(OC)c(OC)c(OC)c3)CC2)cc(OC)c1OC [compound 2]
IC50 [1, 6]: 9 µM | IC50 [1, 7]: 9.5 µM

From US5723465A, “Inhibitors for cell adhesion and cellular infiltration” (Kowa Co., Ltd., priority 1995, dated 1998)
